Measurements taken from US20150157615A1, “COMPOSITIONS AND METHOD FOR THE STIMULATION OF THE FEMALE AND MALE SEXUAL RESPONSE” (MULTICHEM S.A.S. DI GABRIELE SEGALLA, priority 2013, published 2015).

Assays:
human skin = settings: application on human skin; IJSPT Vol. 6 No. 2, 2011; cited from earlier work
skin [1] = settings: Norwegian Food Safety Authority risk profile / Council of Europe monograph 2008; cited from earlier work
female sexual response = system: female sexual response
Experimental: (§1) The application is preferably carried out 4-5 minutes before intercourse, but can also be repeated during intercourse itself whenever required.

male sexual response = system: male sexual response
Experimental: as §1

skin [2] = settings: in the concentrations provided by the present invention
[3] = women, alone, at least 0.5% up to 5% by weight, topical
[4] = men, alone, at least 0.5% up to 5% by weight, topical

## CC1CCC(C(C)C)C(O)C1 (stereo not drawn) [menthol]
Human skin
  flow of blood in the part treated topically: reduces the flow of blood

## COC(=O)c1cccnc1 [methyl nicotinate]
Skin [1]
  concentration at which highly irritating to the skin in some cases: 0.00137-0.003%

## CC1CCC(C(C)C)C(OC(=O)c2cccnc2)C1 (stereo not drawn) [menthyl nicotinate, 5-Methyl-2-(isopropyl) cyclohexyl nicotinate]
Female sexual response; in vivo
  turgidity of the tissues / reddening or itching: without however causing annoying reddening or itching
Female sexual response; [3]
  latency period (period of time between orgasms): Decrease
  number of orgasms: Multiple orgasms
  stimulation of the clitoris: Intense and prolonged stimulation
  time necessary for reaching orgasm: Decrease
  times of foreplay: Decrease
Female sexual response; women, depends on individual and concentration of active ingredient
  duration of perception of cool tingling in the zone of application: up to one hour and more
Male sexual response; in vivo
  turgidity of the tissues / reddening or itching: without however causing annoying reddening or itching
Male sexual response; [4]
  flow of blood in the corpora cavernosa, turgidity and power of erection: A greater flow of blood
  retardant and reinvigorating effect: A retardant and at the same reinvigorating effect
  sexual stimulation: more intense
  voluntary control of ejaculation: Greater ability
Skin [2]
  rubefacient and itching effect: does not exhibit any unpleasant rubefacient and itching effect
